Consider four compounds from patent US10668043B2, “Potentiated antimicrobial agents” (priority 2014, dated 2020).

In brackets after ≈: the same amount, converted by molar mass. A value given as a limit tells only on which side of the number the result lay.

One data set has as its system Staphylococcus. The experiment in a line: etest on agar containing the booster. It is filed as cell-based. The settings on record: MRSA 10178. The text has this:
(§1) The corresponding tests are made based on the usual MIC test: the etest® (Biomerieux) strip is deposited onto the surface of a seeded agar medium in which the booster has been incorporated. This test enables solvent effect risks, that is a possible interaction with the solvent used in vitro, to be minimised.
(§2) The control corresponds to the test made without cineol. A control is made in each solvent tested: distilled water, Tween/water and DMSO. • ED control=antibiotic alone in distilled water • DMSO control=antibiotic alone in DMSO • TE control=antibiotic alone in Tween® 80

The test system of another data set is E. coli. The experiment in a line: etest on agar containing the booster. It is filed as cell-based. The settings on record: Escherichia coli, Coli 8150.
From the text: as §1, §2

The conditions of data set [1]: orally; two mammal species (cats and rats); cited from earlier work.
The conditions of data set [2]: mouse, intravenous; cited from earlier work.
The test system of the next data set is MSSA 8238. The settings on record: Sc.; gentamycin 6 mg/kg or amoxicillin 30 mg/kg, cineol 30 mg/kg where present.
Setting [3] is: DMSO control (antibiotic alone).
Setting [4] is: ED control (antibiotic alone in distilled water).
[5] abbreviates: Tween water control (antibiotic alone).

Method for MSSA 8238: To Balb/c mice, is injected (Sc.) the antimicrobial product or the antimicrobial+booster mixture.
At different post-injection times, the mice are euthanised, and blood sampled, heparined and centrifuged to extract plasma thereof
Antibacterial effects are measured after 24 h incubation. The successive dilutions enable the antimicrobial effect to be determined and compared with the MIC. The efficient concentration/MIC ratio is thus determined.

What is called MIC is the least concentration at which growth counts as inhibited. Higher therefore signals weaker potency. On to `CC1(C)S[C@@H]2[C@H](NC(=O)Cc3ccccc3)C(=O)N2[C@H]1C(=O)O` [Penicillin G], for which the MIC against Staphylococcus (Cineol 1 mg DMSO) is 0.75^+ mg/L; in the data set with Staphylococcus (Cineol 1 mg Tween/water) it was 0.5 µg/mL (≈ 1.5 µM); against Staphylococcus (Cineol 4 mg DMSO), 0.5^+ mg/L; in the data set with Staphylococcus (Cineol 4 mg Tween/water), 0.38^+ mg/L; with Staphylococcus (Cineol 16 mg DMSO) it was 0.19^+ mg/L; with Staphylococcus (Cineol 16 mg Tween/water), 0.125^+ mg/L. Also, the results for the MIC in the data set on Staphylococcus (setting [3]), in the data set on Staphylococcus (setting [4]) and with Staphylococcus (setting [5]) were 1.5 µg/mL (≈ 4.49 µM), 1 µg/mL (≈ 2.99 µM) and 0.5 µg/mL (≈ 1.5 µM), respectively.
`CN(C)c1cc(NC(=O)CNC(C)(C)C)c(O)c2c1C[C@H]1C[C@H]3[C@H](N(C)C)C(O)=C(C(N)=O)C(=O)[C@@]3(O)C(O)=C1C2=O` [Tigecycline]: the MIC in the data set with Staphylococcus (Cineol 1 mg DMSO) turned out to be 0.19 µg/mL (≈ 0.324 µM); in the data set on Staphylococcus (Cineol 1 mg Tween/water), 0.125 µg/mL (≈ 0.213 µM); with Staphylococcus (Cineol 4 mg DMSO) it was 0.19 µg/mL (≈ 0.324 µM); with Staphylococcus (Cineol 4 mg Tween/water), 0.094 µg/mL (≈ 0.161 µM); against Staphylococcus (Cineol 16 mg DMSO) it was 0.125 µg/mL (≈ 0.213 µM); in the data set with Staphylococcus (Cineol 16 mg Tween/water), 0.094 µg/mL (≈ 0.161 µM). Besides, the MIC with Staphylococcus (setting [3]) came to 0.25 µg/mL (≈ 0.427 µM); against Staphylococcus (setting [4]) it was 0.125 µg/mL (≈ 0.213 µM); against Staphylococcus (setting [5]), 0.125 µg/mL (≈ 0.213 µM); in the data set on E. coli (Cineol 1 mg DMSO), 0.19 µg/mL (≈ 0.324 µM); against E. coli (Cineol 1 mg Tween/water) it was 0.125 µg/mL (≈ 0.213 µM); in the data set on E. coli (Cineol 4 mg DMSO) it was 0.125 µg/mL (≈ 0.213 µM). In addition, the MIC in the data set on E. coli (Cineol 4 mg Tween/water) came out at 0.094 µg/mL (≈ 0.161 µM); in the data set with E. coli (Cineol 16 mg DMSO), 0.064 µg/mL (≈ 0.109 µM); in the data set with E. coli (Cineol 16 mg Tween/water) it was 0.1 µg/mL (≈ 0.171 µM); against E. coli (setting [3]), 0.19 µg/mL (≈ 0.324 µM); against E. coli (setting [4]) it was 0.125 µg/mL (≈ 0.213 µM); with E. coli (setting [5]), 0.125 µg/mL (≈ 0.213 µM).
On to `Cc1ccc(C(C)C)cc1O` [carvacrol], for which the lowest letal dose in data set [1] is on record as 100 mg/kg. The “LD 50” value in data set [2] is recorded as 80 mg/kg.
Consider gentamycin, for which, in the data set with MSSA 8238, the “Time spent beyond the MIC” value was less than 5 h.
